Measured values: US12115152B2, “Pan-RAF kinase inhibitor and use thereof” (HEFEI INSTITUTES OF PHYSICAL SCIENCE, CHINESE ACADEMY OF …, priority 2019, dated 2024)

Assays:
[1] = Effect on proliferation of cells, Cell Titer-Glo, 72 hours; format: cell-based; conditions: Mus musculus, BaF3 cells
Description: The compounds of the present invention were tested for their effect on growth of cancer cells (Table 2), to further evaluate the compounds herein for their inhibitory effect on proliferation of cancer cells and their selectivity in inhibiting proliferation of cancer cells. […]
(§1) In the example, solutions of the test compound in DMSO at different concentrations (0.000508 μM, 0.00152 μM, 0.00457 μM, 0.0137 μM, 0.0411 μM, 0.123 μM, 0.370 μM, 1.11 μM, 3.33 μM, 10 μM) was added to the above cells respectively. The cells were incubated for 72 hours. The number of viable cells was detected with a Cell Titer-Glo (Promega, USA) Cell Viability Assay Kit by quantifying the ATP in viable cells. The values of GI50 (unit) of the compounds of the present invention against each of the test cells were determined.

[2] = tested on: human acute leukemia cell OCI-AML-3 (expressing NRAS-Q61L mutant kinase); test: Effect on proliferation of cancer cells, Cell Titer-Glo, 72 hours; format: cell-based; conditions: OCI-AML-3 cells
Description: (§2) The compounds of the present invention were tested for their effect on growth of cancer cells (Table 2), to further evaluate the compounds herein for their inhibitory effect on proliferation of cancer cells and their selectivity in inhibiting proliferation of cancer cells.
(§3) The above-mentioned BaF3-FL-BRAF-V600E mutant cell line was constructed by the method as follows. The sequence of human full-length BRAF-V600E mutant kinase region was amplified by PCR, inserted into a MSCV-Puro vector (purchased from Clontech), and stably transfected into mouse BaF3 cells by the retroviral method, and the growth factor IL-3 was removed. Eventually, a cell line dependent on a full-length BRAF-V600E protein having various mutation transferred was obtained.
as §1

[3] = tested on: human acute leukemia cell NB4 (expressing KRAS-A18D mutant kinase); test: as above; format: cell-based; conditions: NB-4
Description: as §2, §3, §1

[4] = tested on: Calu-6, A375, BxPC3, HCT116, COLO205 cell transplanted tumors; test: Drug efficacy in mouse transplanted tumor models; format: in vivo; conditions: mouse transplanted tumor models of cancer cells expressing KRAS, BRAF or NRAS mutations, oral daily dosing
[5] = tested on: colorectal cancer cell COLO205 (expressing BRAF-V600E mutant kinase); test: Effect on proliferation of cancer cells, Cell Titer-Glo, 72 hours; format: cell-based; conditions: Homo sapiens, COLO 205
Description: as §2
(§4) The cells were incubated for 72 hours. The number of viable cells was detected with a Cell Titer-Glo (Promega, USA) Cell Viability Assay Kit by quantifying the ATP in viable cells. The values of GI50 (unit) of the compounds of the present invention against each of the test cells were determined.

[6] = tested on: melanoma cell A375 (expressing BRAF-V600E mutant kinase); test: as above; format: cell-based; conditions: Homo sapiens, A-375
Description: as §2, §4

[7] = tested on: mouse BaF3-FL-BRAF-V600E (stably expressing full-length BRAF-V600E mutant kinase); test: as above; format: cell-based
Description: as §2, §4

SMILES	GI50 [1]	GI50 [2]	GI50 [3]	tumor inhibitory effect [4]	GI50 [5]	GI50 [6]	GI50 [7]
Cc1ccc(NC(=O)c2cccc(C(F)(F)F)c2)cc1-n1cc(-c2cncc(N3CCOCC3)c2)cn1 [Example 16, N-(4-methyl-3-(4-(5-morpholinopyrid-3-yl)-1H-pyrazol-1-yl)phenyl)-3-(trifluoromethyl)benzamide]	> 10000 nM	21 nM	27 nM	inhibitory effect superior to the control compounds			
Cc1ccc(NC(=O)c2cccc(C(F)(F)F)c2)cc1-n1cc(-c2cccnc2)cn1 [compound 1, 3-trifluoromethyl-N-(4-methyl-3-(4-(pyrid-3-yl)-1H-pyrazol-1-yl)phenyl)benzamide, reference compound]	3300 nM	20 nM	83 nM		150 nM	85 nM	17 nM
